Tests used:
[1] = given once daily; cited from earlier work
RAC1/CDC42 Rho GTPases = target: T1, RAC1/CDC42 Rho GTPases (Mus musculus, UniProt P63001); conditions: Zallocchi et al. 2013; cited from earlier work
T1 construct: host or cells: Alport mice (in vivo)

endothelin A receptor [2] = target: T2, endothelin A receptor (Mus musculus, UniProt Q61614); assay: Sitaxentan treatment of Alport mice; assay type: in vivo; conditions: 30 mg/kg once daily
T2 construct: Endothelin A receptors are expressed primarily on mesangial cells; endogenous in cells; host or cells: Alport mice (in vivo)
T2 sequence (Q61614 21-427): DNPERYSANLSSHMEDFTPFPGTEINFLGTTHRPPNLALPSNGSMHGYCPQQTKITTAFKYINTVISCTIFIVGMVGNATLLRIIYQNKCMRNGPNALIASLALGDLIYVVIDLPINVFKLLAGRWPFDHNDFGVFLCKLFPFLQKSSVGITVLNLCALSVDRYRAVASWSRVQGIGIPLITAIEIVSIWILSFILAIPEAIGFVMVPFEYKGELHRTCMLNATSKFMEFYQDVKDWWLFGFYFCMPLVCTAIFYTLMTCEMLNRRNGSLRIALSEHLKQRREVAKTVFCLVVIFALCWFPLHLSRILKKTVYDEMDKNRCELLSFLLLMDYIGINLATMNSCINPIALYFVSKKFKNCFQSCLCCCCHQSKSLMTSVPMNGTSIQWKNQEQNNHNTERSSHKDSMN

endothelin A receptor [3] = target: T2, endothelin A receptor; assay: Sitaxentan treatment of Alport mice; assay type: in vivo
Protocol: FIG. 1. […] Alport mice were treated with the indicated dose of Sitaxentan once daily from 2 to 7 weeks of age. Real time RT-PCR analysis for the indicated transcripts was performed on glomerular RNA.
FIGS. 3A and 3B. […] 129-Alport animals were treated with the endothelin A receptor specific blocking agent Sitaxentan from 2 weeks to 7 weeks of age.
FIGS. 4A and 4B. […] In FIG. 4A, urine was collected at the indicated timepoints and analyzed for albumin using an ELISA kit. Albumin measures were normalized to urinary creatinine. […] In FIG. 4B, BUN measures were performed on serum from 7-week-old vehicle or Sitaxentan-treated Alport mice.

endothelin A receptor [4] = target: T2, endothelin A receptor; conditions: Dufek et al. 2016, cited from earlier work
[5] = test system: pro-fibrotic genes, including Snail1; assay: QIAGEN mouse fibrosis microarray of glomerular RNA from treated Alport mice; assay type: in vivo
Protocol: FIG. 2. Glomerular RNA from Alport mice treated with vehicle, Sitaxentan, or nAb #7 was analyzed using QIAGEN mouse fibrosis microarray. The data reveal that Sitaxentan (and Ambrisentan) induce a number of pro-fibrotic genes, including Snail1, which is known to play a key role in promoting renal fibrosis (Grande et al., 2015, Nat Med; 21(9):989-97). […] The data is consistent with aberrant signaling activation by classic small molecule ETAR antagonists that results in pro-fibrotic effects, defining a clear potential advantage of the biologic over small molecule approach.
Glomerular RNA from sitaxentan-treated and neutralizing antibody-treated mice was analyzed using QIAGEN mouse fibrosis microarrays.

ACE = target: T3, ACE (Mus musculus, UniProt P09470); conditions: cited from earlier work
T3 construct: host or cells: 129 Sv autosomal Alport mice (in vivo)
T3 sequence (P09470 35-1312): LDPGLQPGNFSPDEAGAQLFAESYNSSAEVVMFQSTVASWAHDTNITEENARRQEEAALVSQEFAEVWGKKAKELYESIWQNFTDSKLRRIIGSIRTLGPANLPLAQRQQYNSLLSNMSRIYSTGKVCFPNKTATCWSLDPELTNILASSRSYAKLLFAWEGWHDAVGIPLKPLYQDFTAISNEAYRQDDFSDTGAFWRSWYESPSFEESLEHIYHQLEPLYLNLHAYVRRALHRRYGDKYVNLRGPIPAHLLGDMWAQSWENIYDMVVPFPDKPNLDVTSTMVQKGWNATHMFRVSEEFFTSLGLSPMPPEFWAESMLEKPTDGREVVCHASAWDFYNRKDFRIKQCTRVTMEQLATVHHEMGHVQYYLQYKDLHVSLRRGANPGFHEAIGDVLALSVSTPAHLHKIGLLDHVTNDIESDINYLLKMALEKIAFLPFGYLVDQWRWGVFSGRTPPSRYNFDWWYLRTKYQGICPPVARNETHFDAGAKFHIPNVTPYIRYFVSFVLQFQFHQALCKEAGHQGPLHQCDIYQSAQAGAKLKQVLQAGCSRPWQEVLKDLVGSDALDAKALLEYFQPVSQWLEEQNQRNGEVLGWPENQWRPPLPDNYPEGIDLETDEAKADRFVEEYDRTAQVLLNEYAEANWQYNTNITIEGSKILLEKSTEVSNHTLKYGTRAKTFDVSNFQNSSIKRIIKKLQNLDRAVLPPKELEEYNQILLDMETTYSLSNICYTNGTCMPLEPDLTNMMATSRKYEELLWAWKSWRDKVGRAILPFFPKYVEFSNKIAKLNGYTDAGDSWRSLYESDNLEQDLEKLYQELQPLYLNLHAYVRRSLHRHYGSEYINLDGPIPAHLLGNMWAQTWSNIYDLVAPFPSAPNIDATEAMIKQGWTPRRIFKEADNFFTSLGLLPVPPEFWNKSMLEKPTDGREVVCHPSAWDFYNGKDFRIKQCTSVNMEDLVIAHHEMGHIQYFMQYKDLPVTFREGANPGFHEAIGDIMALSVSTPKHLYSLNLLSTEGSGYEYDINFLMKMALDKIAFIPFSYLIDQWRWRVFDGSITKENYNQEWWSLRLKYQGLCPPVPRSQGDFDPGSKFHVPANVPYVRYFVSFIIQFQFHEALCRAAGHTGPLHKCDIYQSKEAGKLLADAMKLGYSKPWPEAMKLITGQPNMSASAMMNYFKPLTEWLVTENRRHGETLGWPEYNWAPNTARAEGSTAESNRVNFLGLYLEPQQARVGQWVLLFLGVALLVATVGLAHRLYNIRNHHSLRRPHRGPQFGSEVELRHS

SMILES: COC(c1ccccc1)(c1ccccc1)[C@H](Oc1nc(C)cc(C)n1)C(=O)O [Ambrisentan]
- half-life in mice [1]: 6 h

SMILES: CCN(CC)CCCC(C)Nc1nc(C)cc(Nc2ccc3nc(C)cc(N)c3c2)n1 (stereo not drawn) [NCS 23766]
- laminin 211 deposition in the Alport GBM (RAC1/CDC42 Rho GTPases): largely blocked

SMILES: Cc1cc2c(cc1CC(=O)c1sccc1S(=O)(=O)Nc1onc(C)c1Cl)OCO2 [Sitaxentan]
- lifespan vs vehicle (endothelin A receptor [2]): shorter lifespan than vehicle treated Alport mice
- therapeutic effect (endothelin A receptor [3]; 5 mg/kg): little to no significant therapeutic effect
- BUN (endothelin A receptor [3]; 30 mg/kg dose): not statistically different from vehicle treated Alport mice
- fibrosis scores (endothelin A receptor [3]; 30 mg/kg dose): not statistically different from vehicle treated Alport mice
- glomerulosclerosis scores (endothelin A receptor [3]; 30 mg/kg dose): not statistically different from vehicle treated Alport mice
- proteinuria (endothelin A receptor [3]; 30 mg/kg dose): not statistically different from vehicle treated Alport mice
- GBM dysmorphology (TEM) (endothelin A receptor [3]; 7-week-old Alport mice): normalized
- serum BUN levels (endothelin A receptor [3]; 7-week-old mice): reduces
- GBM laminin α2 deposition (endothelin A receptor [3]; 129 Sv/J autosomal Alport mice): greatly reduced
- age at which measurable urinary albumin was first detected (endothelin A receptor [3]; albumin ELISA normalized to urinary creatinine): 6 weeks of age
- renal disease (renotoxicity) (endothelin A receptor [3]; increasing doses above 10 mg/kg): exacerbated renal disease
- infiltration of glomerular capillaries with mesangial filopodia (endothelin A receptor [3]; integrin α8 immunopositivity): greatly reduced
- Alport pathogenesis (endothelin A receptor [3]; low dose 10 mg/kg once daily, 2 to 7 weeks of age): ameliorated Alport pathogenesis
- glomerular mRNA expression of cytokines and metalloproteinases (MMP-9, MMP-10, MMP-12, MCP-1, IL-6) (endothelin A receptor [3]; real time RT-PCR): reduced to near control levels
- % glomerulosclerosis (endothelin A receptor [3]; treated 2 to 7 weeks of age): reduced to near control levels
- fibrosis scores (endothelin A receptor [3]; treated 2 to 7 weeks of age): reduced to near control levels
- onset and progression of proteinuria (endothelin A receptor [3]; treated 2 to 7 weeks of age): significantly delays
- blood pressure (endothelin A receptor [4]; 129 Sv autosomal Alport mouse model): no effect on blood pressure
- increase in lifespan (endothelin A receptor [4]; Alport mice): 20%
- GBM damage vs vehicle-treated Alport mice (endothelin A receptor [4]): significantly reduced GBM damage
- induction of pro-fibrotic / pro-inflammatory genes incl. Snail1 in glomeruli [5]: markedly inducing
- half-life in mice [1]: 6 h

SMILES: CCOC(=O)[C@H](CCc1ccccc1)N[C@@H](C)C(=O)N1[C@H](C(=O)O)C[C@@H]2CCC[C@@H]21 [ramipril]
- degree of GBM damage (ACE; Gross et al. 2003): comparable to untreated Alport mice
- lifespan (ACE; administered before onset of proteinuria, Gross et al. 2003): doubled
- blood pressure (ACE; mouse, in vivo): reduces blood pressure
